Source: the supplement of paper PMC10331698
± gives the standard deviation of the averaged measurements.

Legend:
Assay in all cases: level (log10 ratio to DMSO vehicle control); higher = higher biomarker level / cell amount than vehicle control
[1] = compound: C=CC(=O)OCC(F)(F)C(F)(F)C(F)(F)C(F)(F)C(F)(F)C(F)(F)C(F)(F)C(F)F [1H,1H,9H-Perfluorononyl acrylate]; conditions: in DMSO
Protocol: (§1)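 BioMAP Diversity Plus panel of 12 human primary cell co-culture systems (3C, 4H, LPS, SAg, BT, BF4T, BE3C, CASM3C, HDF3CGF, KF3CT, MyoF, Mphg). Compounds were added 1 h before stimulation and left for 24 h (MyoF 48 h; BT 72 h for soluble read-outs or 6 d for IgG). Biomarkers were read by ELISA, cytotoxicity by SRB, PBMC viability and proliferation by Alamar Blue. Each well value was divided by the mean of 8 DMSO control wells on the same plate and log10 transformed; duplicate blinded samples were tested at 4 concentrations.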

[2] = compound: C=CC(=O)OCC(F)(F)C(F)(F)C(F)(F)C(F)(F)COC(=O)C=C [1H,1H,6H,6H-Perfluorohexane-1,6-diol diacrylate]; conditions: 6700 nM; in DMSO
Protocol: as §1

[3] = compound: FC(F)(F)C(F)(F)C(F)(F)C(F)(F)CCI [1H,1H,2H,2H-Perfluorohexyl iodide]; conditions: in DMSO
Protocol: as §1

[4] = compound: O=C(O)C(F)(F)C(F)(F)C(F)(F)C(F)(F)C(F)(F)C(F)(F)C(F)(F)F [Ammonium perfluorooctanoate]; conditions: in DMSO
Protocol: as §1

[5] = compound: O=P(O)(O)CCC(F)(F)C(F)(F)C(F)(F)C(F)(F)C(F)(F)C(F)(F)F [2-(Perfluorohexyl)ethylphosphonic acid]; conditions: in DMSO
Protocol: as §1

[6] = compound: OCC(F)(F)C(F)(F)C(F)(F)C(F)(F)C(F)(F)C(F)(F)C(F)(F)C(F)(F)C(F)(F)C(F)(F)C(F)(F)F [11:1 Fluorotelomer alcohol]; conditions: in DMSO
Protocol: as §1

[7] = compound: OCCCCC(F)(F)C(F)(F)C(F)(F)C(F)(F)F [4:4 Fluorotelomer alcohol]; conditions: in DMSO
Protocol: as §1

Test System | level (log10) ([1]; 6700 nM) | level (log10) ([1]; 20000 nM) | level (log10) ([1]; 60000 nM) | level (log10) [2] | level (log10) ([3]; 6700 nM) | level (log10) ([3]; 20000 nM) | level (log10) ([3]; 60000 nM) | level (log10) ([4]; 6700 nM) | level (log10) ([4]; 20000 nM) | level (log10) ([4]; 60000 nM) | level (log10) ([5]; 6700 nM) | level (log10) ([5]; 20000 nM) | level (log10) ([5]; 60000 nM) | level (log10) ([6]; 1100 nM) | level (log10) ([6]; 3300 nM) | level (log10) ([6]; 10000 nM) | level (log10) ([7]; 6700 nM) | level (log10) ([7]; 20000 nM) | level (log10) ([7]; 60000 nM)
lMphg:CD40 | -0.0205 ± 0.005 | -0.022 ± 0.018 | -0.032 ± 0.021 | -0.051 ± 0.024 | -0.017 ± 0.014 | -0.0245 ± 0.029 | -0.018 ± 0.025 | 0.0115 ± 0.053 | -0.0145 ± 0.0092 | -0.0585 ± 0.023 | -0.0155 ± 0.0021 | -0.0165 ± 0.00071 | -0.012 ± 0.041 | 0.0005 ± 0.036 | 0.005 ± 0.042 | -0.357 ± 0.028 | -0.0295 ± 0.005 | -0.0195 ± 0.029 | -0.0055 ± 0.033
lMphg:sIL-10 | -0.0335 ± 0.015 | 0.0005 ± 0.0092 | 0.029 ± 0.033 | -0.067 ± 0.014 | -0.072 ± 0.047 | -0.043 ± 0.03 | -0.0495 ± 0.042 | -0.0655 ± 0.049 | -0.042 ± 0.021 | -0.16 ± 0.028 | -0.0015 ± 0.083 | -0.091 ± 0.0014 | -0.0775 ± 0.09 | -0.0255 ± 0.069 | -0.0875 ± 0.066 | -0.216 ± 0.082 | -0.096 ± 0.11 | -0.032 ± 0.0028 | -0.014 ± 0.041
BE3C:uPA | -0.0335 ± 0.0092 | 0.0015 ± 0.0092 | -0.0195 ± 0.0035 | -0.02 ± 0.014 | -0.001 ± 0.0071 | -0.007 ± 0.0071 | -0.001 ± 0.0014 | 0.002 ± 0.0071 | -0.002 ± 0.0042 | 0.018 ± 0.0085 | -0.016 ± 0.0099 | -0.004 ± 0.0071 | 0.0075 ± 0.012 | -0.0155 ± 0.013 | -0.0405 ± 0.0078 | -0.0175 ± 0.0035 | 0.0035 ± 0.011 | -0.0115 ± 0.00071 | 0.0015 ± 0.0021
lMphg:IL-1alpha | 0.006 ± 0.038 | -0.0025 ± 0.054 | 0.0195 ± 0.063 | 0.0245 ± 0.057 | 0.008 | 0.0045 ± 0.012 | 0.0345 ± 0.0078 | 0.0005 ± 0.026 | 0.0005 ± 0.0064 | 0.004 ± 0.014 | -0.0265 ± 0.021 | -0.029 ± 0.024 | 0.0075 ± 0.084 | 0.057 ± 0.025 | 0.039 ± 0.0085 | -0.12 ± 0.076 | -0.0075 ± 0.005 | -0.0125 ± 0.005 | 0.0115 ± 0.015
MyoF:Collagen IV | 0.02 ± 0.0014 | 0.015 ± 0.024 | 0.0035 ± 0.021 | -0.0715 ± 0.015 | 0.011 ± 0.031 | 0.024 ± 0.017 | 0.021 ± 0.05 | 0.06 ± 0.0099 | 0.0745 ± 0.0035 | 0.225 ± 0.05 | -0.038 ± 0.0071 | -0.019 ± 0.03 | -0.0405 ± 0.0021 | -0.0365 ± 0.05 | -0.0255 ± 0.028 | -0.01 ± 0.028 | 0.002 ± 0.03 | -0.009 ± 0.044 | 0.0145 ± 0.063
lMphg:CXCL8/IL-8 | 0.014 ± 0.02 | 0.0025 ± 0.0064 | 0.038 ± 0.014 | 0.0035 ± 0.0092 | -0.0325 ± 0.0035 | -0.006 ± 0.0085 | 0.0355 ± 0.018 | 0.0185 ± 0.026 | 0.099 ± 0.0057 | 0.222 ± 0.033 | -0.008 ± 0.0028 | -0.0315 ± 0.033 | 0.0385 ± 0.026 | 0.111 ± 0.042 | 0.127 ± 0.033 | 0.0445 ± 0.0064 | -0.04 ± 0.035 | -0.0355 ± 0.029 | 0.022 ± 0.021
